Read-outs that look alike come from different tables or passages of the source.
Experiments:
Format in all cases: in vivo
[1] = tested on: Surinam grass (Brachiaria decumbens); assay: Test C pre/postemergence; settings: Preemergence, scale 0 to 100, 0 no effect, 100 complete control
From the text: (§1) Seeds or nutlets of plant species selected from bermudagrass (Cynodon dactylon), Surinam grass (Brachiaria decumbens), cocklebur (Xanthium strumarium), corn (Zea mays), crabgrass (Digitaria sanguinalis), woolly cupgrass (Eriochloa villosa), giant foxtail (Setaria faberii), goosegrass (Eleusine indica), johnsongrass (Sorghum halepense), kochia (Kochia scoparia), lambsquarters (Chenopodium album), morningglory (Ipomoea coccinea), eastern black nightshade (Solanum ptycanthum), yellow nutsedge (Cyperus esculentus), pigweed (Amaranthus retroflexus), common ragweed (Ambrosia elatior), soybean (Glycine max), common (oilseed) sunflower (Helianthus annuus), and velvetleaf (Abutilon theophrasti) were planted and treated preemergence with test chemicals formulated in a non-phytotoxic solvent mixture which included a surfactant.
(§2) At the same time, plants selected from these crop and weed species and also winter barley (Hordeum vulgare), blackgrass (Alopecurus myosuroides), canarygrass (Phalaris minor), chickweed (Stellaria media), downy brome (Bromus tectorum), green foxtail (Setaria viridis), Italian ryegrass (Lolium multiflorum), wheat (Triticum aestivum), wild oat (Avena fatua) and windgrass (Apera spica-venti) were treated with postemergence applications of some of the test chemicals formulated in the same manner. Plants ranged in height from 2 to 18 cm (1- to 4-leaf stage) for postemergence treatments. Plant species in the flooded paddy test consisted of rice (Oryza sativa), umbrella sedge (Cyperus difformis), duck salad (Heteranthera limosa) and barnyardgrass (Echinochloa crus-galli) grown to the 2-leaf stage for testing. Treated plants and controls were maintained in a greenhouse for 12 to 14 days, after which time all species were compared to controls and visually evaluated. Plant response ratings, summarized in Table C, are based on a scale of 0 to 100 where 0 is no effect and 100 is complete control. A dash (-) response means no test result.

[2] = tested on: yellow nutsedge (Cyperus esculentus); assay: Test C pre/postemergence; settings: Preemergence, scale 0 to 100, 0 no effect, 100 complete control
From the text: as §1, §2

[3] = tested on: crabgrass (Digitaria sanguinalis); assay: Test C pre/postemergence; settings: Preemergence
From the text: as §1, §2

[4] = tested on: giant foxtail (Setaria faberii); assay: Test C pre/postemergence; settings: Preemergence
From the text: as §1, §2

[5] = tested on: morningglory (Ipomoea spp.); assay: Test A pre/postemergence; settings: Ipomoea, 240 h, read-out: Plant response rating, Morningglory; for pest or weed control at 125 g/ha: 125 g ai/ha; for pest or weed control at 500 g/ha: 500 g ai/ha
Procedure, shortened: (§3)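 Seeds in loam–sand blend received preemergence directed soil spray and, concurrently, postemergence application (plants 2–10 cm, 1–2-leaf stage) of compound in non-phytotoxic solvent with surfactant. After about ten days in greenhouse, injury rated visually versus untreated controls, 0 (no effect) to 100 (complete control).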

[6] = tested on: crabgrass (Digitaria sanguinalis); assay: Test A pre/postemergence; settings: for pest or weed control at 125 g/ha: 125 g ai/ha
Procedure, shortened: as §3

[7] = tested on: barnyardgrass (Echinochloa crus-galli); assay: Test A pre/postemergence; settings: for pest or weed control at 500 g/ha: 500 g ai/ha
Procedure, shortened: as §3

[8] = tested on: giant foxtail (Setaria faberi); assay: Test A pre/postemergence; settings: for pest or weed control at 500 g/ha: 500 g ai/ha
Procedure, shortened: as §3

[9] = tested on: redroot pigweed (Amaranthus retroflexus); assay: Test A pre/postemergence; settings: Amaranthus retroflexus, 240 h, read-out: Plant response rating, Pigweed; for pest or weed control at 125 g/ha: 125 g ai/ha; for pest or weed control at 500 g/ha: 500 g ai/ha
Procedure, shortened: as §3

[10] = tested on: velvetleaf (Abutilon theophrasti); assay: Test A pre/postemergence; settings: Abutilon theophrasti, 240 h, read-out: Plant response rating, Velvetleaf; for pest or weed control at 125 g/ha: 125 g ai/ha; for pest or weed control at 500 g/ha: 500 g ai/ha
Procedure, shortened: as §3

[11] = 16 g ai/ha, scale 0 to 100, 0 no effect, 100 complete control
[12] = post-emergence, Postemergence, 0 to 100 scale (0 no effect, 100 complete control)
[13] = pre-emergence, Preemergence, 0 to 100 scale where 0 is no effect and 100 is complete control, approximately ten days
[14] = Preemergence, 125 g ai/ha, 0 to 100 scale where 0 is no effect and 100 is complete control, approximately ten days

Nc1nc(C2CC2)nc(C(=O)[O-])c1Cl.[Na+] [Compound 77, 6-amino-5-chloro-2-cyclopropyl-4-pyrimidinecarboxylic acid monosodium salt]
Plant response rating, Surinam Grass ([1]; 16 g ai/ha): 0
pest or weed control at 31 g/ha ([1]; Urochloa decumbens, pre-emergence, 31 g ai/ha, read-out: Plant response rating, Surinam Grass): 0%
pest or weed control at 62 g/ha ([1]; Urochloa decumbens, pre-emergence, 62 g ai/ha, read-out: Plant response rating, Surinam Grass): 0%
pest or weed control at 31 g/ha ([2]; Cyperus, pre-emergence, 31 g ai/ha, read-out: Plant response rating, Nutsedge, Yellow): 0%
pest or weed control at 62 g/ha ([2]; Cyperus, pre-emergence, 62 g ai/ha, read-out: Plant response rating, Nutsedge, Yellow): 0%
Plant response rating, Nutsedge, Yellow ([2]; 16 g ai/ha): 0
pest or weed control at 31 g/ha ([3]; Digitaria sanguinalis, pre-emergence, 31 g ai/ha, scale 0 to 100, 0 no effect, 100 complete control, read-out: Plant response rating, Crabgrass): 0%
pest or weed control at 62 g/ha ([3]; Digitaria sanguinalis, pre-emergence, 62 g ai/ha, scale 0 to 100, 0 no effect, 100 complete control, read-out: Plant response rating, Crabgrass): 0%
Plant response rating, Crabgrass [3, 11]: 0
Plant response rating, Crabgrass ([3]; 125 g ai/ha, scale 0 to 100): 0
Plant response rating, Foxtail, Giant [4, 11]: 0
pest or weed control at 31 g/ha ([4]; Setaria faberi, pre-emergence, 31 g ai/ha, scale 0 to 100, 0 no effect, 100 complete control, read-out: Plant response rating, Foxtail, Giant): 0%
pest or weed control at 62 g/ha ([4]; Setaria faberi, pre-emergence, 62 g ai/ha, scale 0 to 100, 0 no effect, 100 complete control, read-out: Plant response rating, Foxtail, Giant): 0%
pest or weed control at 125 g/ha ([4]; Setaria faberi, pre-emergence, 125 g ai/ha, scale 0 to 100, read-out: Plant response rating, Foxtail, Giant): 0%
pest or weed control at 125 g/ha [5, 12]: 95%
pest or weed control at 500 g/ha [5, 12]: 100%
pest or weed control at 125 g/ha [5, 13]: 100%
pest or weed control at 500 g/ha [5, 13]: 100%
pest or weed control at 125 g/ha ([6]; Digitaria sanguinalis, post-emergence, 240 h, Postemergence, 0 to 100 scale (0 no effect, 100 complete control), read-out: Plant response rating, Crabgrass): 70%
pest or weed control at 125 g/ha ([6]; Digitaria sanguinalis, pre-emergence, 240 h, Preemergence, 0 to 100 scale where 0 is no effect and 100 is complete control, approximately ten days, read-out: Plant response rating, Crabgrass): 70%
pest or weed control at 500 g/ha ([6]; Digitaria sanguinalis, pre-emergence, 240 h, Preemergence, 500 g ai/ha, 0 to 100 scale where 0 is no effect and 100 is complete control, approximately ten days, read-out: Plant response rating, Crabgrass): 80%
Plant response rating, Crabgrass ([6]; Postemergence, 500 g ai/ha, 0 to 100 scale (0 no effect, 100 complete control)): 90
pest or weed control at 125 g/ha ([7]; Echinochloa crus-galli, post-emergence, 240 h, Postemergence, 125 g ai/ha, 0 to 100 scale (0 no effect, 100 complete control), read-out: Plant response rating, Barnyardgrass): 90%
pest or weed control at 500 g/ha ([7]; Echinochloa crus-galli, post-emergence, 240 h, Postemergence, 0 to 100 scale (0 no effect, 100 complete control), read-out: Plant response rating, Barnyardgrass): 90%
pest or weed control at 500 g/ha ([7]; Echinochloa crus-galli, pre-emergence, 240 h, Preemergence, 0 to 100 scale where 0 is no effect and 100 is complete control, approximately ten days, read-out: Plant response rating, Barnyardgrass): 100%
Plant response rating, Barnyardgrass [7, 14]: 90
Plant response rating, Foxtail, Giant [8, 14]: 75
pest or weed control at 125 g/ha ([8]; Setaria faberi, post-emergence, 240 h, Postemergence, 125 g ai/ha, 0 to 100 scale (0 no effect, 100 complete control), read-out: Plant response rating, Foxtail, Giant): 85%
pest or weed control at 500 g/ha ([8]; Setaria faberi, post-emergence, 240 h, Postemergence, 0 to 100 scale (0 no effect, 100 complete control), read-out: Plant response rating, Foxtail, Giant): 90%
pest or weed control at 500 g/ha ([8]; Setaria faberi, pre-emergence, 240 h, Preemergence, 0 to 100 scale where 0 is no effect and 100 is complete control, approximately ten days, read-out: Plant response rating, Foxtail, Giant): 95%
pest or weed control at 125 g/ha [9, 12]: 95%
pest or weed control at 500 g/ha [9, 12]: 95%
pest or weed control at 125 g/ha [9, 13]: 85%
pest or weed control at 500 g/ha [9, 13]: 95%
pest or weed control at 125 g/ha [10, 12]: 95%
pest or weed control at 500 g/ha [10, 12]: 100%
pest or weed control at 125 g/ha [10, 13]: 100%
pest or weed control at 500 g/ha [10, 13]: 100%
